The term EC50 denotes the concentration needed to bring the measured effect to its halfway point. Usually IC50 stands for the concentration needed to halve the response being measured. The term AC50 denotes the concentration giving half of the maximal activity seen.

The target of experiment [1] is Neurotensin receptor type 1 (Homo sapiens, UniProt P30989). It counts as functional.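 Also: Image-based confirmatory dose-response assay measuring agonist activity at NTR1; NTR1-expressing U2OS osteosarcoma cells imaged for beta-arrestin GFP spot formation; agonist potency where compounds increase beta-arrestin recruitment.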
Sequence of Neurotensin receptor type 1 (P30989 whole entry): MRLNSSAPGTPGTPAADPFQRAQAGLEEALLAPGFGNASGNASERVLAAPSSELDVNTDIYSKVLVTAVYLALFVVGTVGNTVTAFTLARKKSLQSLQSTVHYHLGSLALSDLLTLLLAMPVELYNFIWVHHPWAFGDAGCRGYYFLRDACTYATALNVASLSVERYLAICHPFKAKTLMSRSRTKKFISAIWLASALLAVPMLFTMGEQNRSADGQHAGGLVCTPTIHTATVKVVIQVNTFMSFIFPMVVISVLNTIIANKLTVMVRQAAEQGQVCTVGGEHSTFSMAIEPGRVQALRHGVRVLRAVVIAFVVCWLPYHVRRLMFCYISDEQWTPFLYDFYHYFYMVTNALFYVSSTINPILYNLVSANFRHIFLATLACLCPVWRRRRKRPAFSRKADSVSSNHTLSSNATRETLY
The target of another experiment is T1, Coagulation factor XII (Homo sapiens, UniProt P00748).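 Also: activated factor XIIa alpha cleaving a fluorogenic AMC peptide substrate; inhibitor potency from loss of enzyme activity.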
T1 sequence (P00748 whole entry): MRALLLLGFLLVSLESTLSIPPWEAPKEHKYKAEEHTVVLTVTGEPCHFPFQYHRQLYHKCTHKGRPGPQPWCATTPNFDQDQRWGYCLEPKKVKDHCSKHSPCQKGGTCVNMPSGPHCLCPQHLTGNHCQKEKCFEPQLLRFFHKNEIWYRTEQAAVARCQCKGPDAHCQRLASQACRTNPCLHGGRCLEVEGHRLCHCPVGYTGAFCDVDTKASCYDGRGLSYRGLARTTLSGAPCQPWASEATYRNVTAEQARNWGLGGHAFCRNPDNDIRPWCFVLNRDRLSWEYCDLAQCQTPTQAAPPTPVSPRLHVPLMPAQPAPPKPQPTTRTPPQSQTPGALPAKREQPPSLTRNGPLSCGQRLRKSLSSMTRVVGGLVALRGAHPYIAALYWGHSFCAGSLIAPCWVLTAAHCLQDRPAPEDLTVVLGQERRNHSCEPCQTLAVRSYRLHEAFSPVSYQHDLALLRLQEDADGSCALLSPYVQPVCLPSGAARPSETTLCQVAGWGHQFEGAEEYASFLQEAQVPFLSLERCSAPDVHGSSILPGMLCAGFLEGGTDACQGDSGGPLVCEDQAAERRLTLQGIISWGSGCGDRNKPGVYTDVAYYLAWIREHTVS
The format is functional.

A further experiment addresses T2, Estrogen receptor (Homo sapiens, UniProt P03372).
T2 sequence (P03372 whole entry): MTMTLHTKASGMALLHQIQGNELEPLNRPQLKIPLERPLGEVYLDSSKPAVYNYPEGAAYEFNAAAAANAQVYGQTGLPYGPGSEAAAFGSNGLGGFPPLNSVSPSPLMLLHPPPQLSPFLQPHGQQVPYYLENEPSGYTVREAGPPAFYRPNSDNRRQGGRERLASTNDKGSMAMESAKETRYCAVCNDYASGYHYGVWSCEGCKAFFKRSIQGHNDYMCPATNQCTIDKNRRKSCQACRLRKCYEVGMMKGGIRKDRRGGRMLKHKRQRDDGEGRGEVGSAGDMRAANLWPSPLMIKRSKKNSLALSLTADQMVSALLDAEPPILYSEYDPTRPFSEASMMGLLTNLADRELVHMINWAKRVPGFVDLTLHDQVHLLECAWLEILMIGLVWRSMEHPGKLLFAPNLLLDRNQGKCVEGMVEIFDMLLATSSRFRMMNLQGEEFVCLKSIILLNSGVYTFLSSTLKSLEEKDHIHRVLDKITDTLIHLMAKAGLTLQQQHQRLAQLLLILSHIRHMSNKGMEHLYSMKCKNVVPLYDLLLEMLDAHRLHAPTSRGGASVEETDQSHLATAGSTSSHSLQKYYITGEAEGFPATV

A short description of experiment [2]: growth suppression of PTEN-null colon cells, dose response, cell-based, HCT116 PTEN knockout (AID 1047).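 Also: HCT116 colon tumor cells with PTEN knocked out; cells exposed to compound for 60 hours before readout; potency for loss of cell viability measured by luminescence.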 It counts as functional.
Experiment [3] can be described thus: growth suppression of beta-catenin-knockout colon cells, dose response, cell-based, HCT116, human colon tumor (AID 1045).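 Also: HCT116 colon tumor cells with beta catenin knocked out; cells exposed to compound for 60 hours.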 It counts as functional.
Another experiment concerns the target Keap1/Nrf2 (Homo sapiens, UniProt Q14145). The experiment in a line: Keap1-Nrf2 protein-protein interaction inhibitors, dose response, biochemical, fluorescence polarization, cherry-picked samples (AID 588683).
Experiment [4] deals with Voltage-dependent T-type calcium channel subunit alpha-1H (Homo sapiens, UniProt O95180). The format is functional.
Sequence of Voltage-dependent T-type calcium channel subunit alpha-1H (O95180 whole entry): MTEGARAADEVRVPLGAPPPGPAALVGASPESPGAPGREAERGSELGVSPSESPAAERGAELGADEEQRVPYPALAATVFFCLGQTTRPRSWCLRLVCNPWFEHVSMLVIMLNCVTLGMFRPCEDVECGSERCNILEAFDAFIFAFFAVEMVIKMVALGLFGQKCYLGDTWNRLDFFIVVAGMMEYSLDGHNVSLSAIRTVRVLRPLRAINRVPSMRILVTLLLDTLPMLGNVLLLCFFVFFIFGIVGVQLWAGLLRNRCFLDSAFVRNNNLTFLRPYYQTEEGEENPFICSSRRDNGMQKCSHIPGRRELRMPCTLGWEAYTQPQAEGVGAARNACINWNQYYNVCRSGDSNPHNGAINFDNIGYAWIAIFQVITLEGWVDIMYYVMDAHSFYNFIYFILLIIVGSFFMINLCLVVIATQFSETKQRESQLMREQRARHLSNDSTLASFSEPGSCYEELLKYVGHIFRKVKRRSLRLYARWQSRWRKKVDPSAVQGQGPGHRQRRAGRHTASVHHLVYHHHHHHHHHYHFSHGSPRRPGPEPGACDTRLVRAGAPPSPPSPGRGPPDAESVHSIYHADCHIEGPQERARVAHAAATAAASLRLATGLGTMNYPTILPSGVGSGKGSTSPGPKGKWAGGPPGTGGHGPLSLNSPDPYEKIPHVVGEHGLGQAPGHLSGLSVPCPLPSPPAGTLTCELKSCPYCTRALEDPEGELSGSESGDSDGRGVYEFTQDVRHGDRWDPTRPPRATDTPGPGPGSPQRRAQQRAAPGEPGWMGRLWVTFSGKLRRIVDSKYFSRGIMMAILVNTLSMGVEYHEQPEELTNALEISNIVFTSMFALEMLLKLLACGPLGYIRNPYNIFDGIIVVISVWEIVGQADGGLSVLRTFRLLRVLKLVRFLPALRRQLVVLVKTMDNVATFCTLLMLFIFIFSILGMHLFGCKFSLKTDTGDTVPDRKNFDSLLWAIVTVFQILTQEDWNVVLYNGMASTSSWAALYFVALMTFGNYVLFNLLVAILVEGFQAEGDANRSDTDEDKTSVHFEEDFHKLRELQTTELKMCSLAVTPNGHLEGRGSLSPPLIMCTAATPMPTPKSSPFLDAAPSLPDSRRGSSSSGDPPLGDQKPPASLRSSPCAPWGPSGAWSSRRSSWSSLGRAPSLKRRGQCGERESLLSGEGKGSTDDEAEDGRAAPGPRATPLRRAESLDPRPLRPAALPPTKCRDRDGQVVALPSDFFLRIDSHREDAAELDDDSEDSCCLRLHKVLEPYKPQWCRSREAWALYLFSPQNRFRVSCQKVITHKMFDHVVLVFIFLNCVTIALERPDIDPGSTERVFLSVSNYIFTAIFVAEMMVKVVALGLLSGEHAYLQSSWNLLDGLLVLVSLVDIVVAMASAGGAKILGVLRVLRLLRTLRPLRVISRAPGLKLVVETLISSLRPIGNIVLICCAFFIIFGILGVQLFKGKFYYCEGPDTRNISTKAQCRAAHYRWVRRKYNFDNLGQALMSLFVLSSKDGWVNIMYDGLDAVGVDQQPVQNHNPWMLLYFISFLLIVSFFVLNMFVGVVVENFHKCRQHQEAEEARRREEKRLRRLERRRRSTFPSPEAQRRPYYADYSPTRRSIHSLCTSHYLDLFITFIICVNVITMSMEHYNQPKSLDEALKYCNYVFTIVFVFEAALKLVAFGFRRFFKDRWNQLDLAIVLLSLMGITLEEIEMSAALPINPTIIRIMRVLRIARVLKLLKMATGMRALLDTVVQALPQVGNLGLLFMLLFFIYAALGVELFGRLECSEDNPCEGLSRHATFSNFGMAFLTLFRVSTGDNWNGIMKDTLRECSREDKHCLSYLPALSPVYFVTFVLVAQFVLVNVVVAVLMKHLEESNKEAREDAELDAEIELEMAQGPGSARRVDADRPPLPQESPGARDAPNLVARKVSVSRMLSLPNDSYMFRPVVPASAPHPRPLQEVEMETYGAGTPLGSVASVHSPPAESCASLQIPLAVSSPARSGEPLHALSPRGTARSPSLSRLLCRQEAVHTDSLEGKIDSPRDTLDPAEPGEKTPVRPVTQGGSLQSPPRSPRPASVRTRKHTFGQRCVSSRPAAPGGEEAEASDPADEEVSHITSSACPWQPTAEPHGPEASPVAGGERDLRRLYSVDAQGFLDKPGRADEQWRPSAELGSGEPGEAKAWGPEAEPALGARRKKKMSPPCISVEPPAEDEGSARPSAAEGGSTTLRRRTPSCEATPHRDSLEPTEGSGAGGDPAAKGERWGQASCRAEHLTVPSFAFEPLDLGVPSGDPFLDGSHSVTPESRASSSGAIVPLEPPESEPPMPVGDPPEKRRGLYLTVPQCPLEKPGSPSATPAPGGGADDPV
Experiment [5] deals with Polyadenylate-binding protein 1 (Homo sapiens, UniProt P11940). The experiment in a line: PABP poly(A) RNA binding inhibitors, primary screen, biochemical, fluorescence polarization, uHTS (AID 2014). In general terms: In fluorescence polarisation assays a small probe gives low polarisation when free and higher when bound to something large.
Sequence of Polyadenylate-binding protein 1 (P11940 whole entry): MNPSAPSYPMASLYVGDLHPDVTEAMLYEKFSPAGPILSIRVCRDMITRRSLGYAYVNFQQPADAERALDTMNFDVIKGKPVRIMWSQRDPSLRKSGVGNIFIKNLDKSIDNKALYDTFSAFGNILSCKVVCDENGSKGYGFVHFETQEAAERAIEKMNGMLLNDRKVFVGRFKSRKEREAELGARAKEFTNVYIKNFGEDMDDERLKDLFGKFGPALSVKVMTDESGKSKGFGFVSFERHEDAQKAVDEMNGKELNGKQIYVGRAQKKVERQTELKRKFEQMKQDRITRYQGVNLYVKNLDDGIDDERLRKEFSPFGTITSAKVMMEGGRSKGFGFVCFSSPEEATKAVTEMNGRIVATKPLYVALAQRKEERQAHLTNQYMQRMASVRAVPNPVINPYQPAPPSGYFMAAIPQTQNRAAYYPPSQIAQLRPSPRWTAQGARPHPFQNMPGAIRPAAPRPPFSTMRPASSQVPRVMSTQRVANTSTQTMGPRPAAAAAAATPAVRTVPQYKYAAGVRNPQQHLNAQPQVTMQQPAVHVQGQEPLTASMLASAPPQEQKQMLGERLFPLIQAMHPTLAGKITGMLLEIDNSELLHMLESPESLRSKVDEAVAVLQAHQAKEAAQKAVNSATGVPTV
The target in another experiment is T3, Aminopeptidase N (Plasmodium falciparum FcB1/Columbia, UniProt O96935).
T3 sequence (O96935 whole entry): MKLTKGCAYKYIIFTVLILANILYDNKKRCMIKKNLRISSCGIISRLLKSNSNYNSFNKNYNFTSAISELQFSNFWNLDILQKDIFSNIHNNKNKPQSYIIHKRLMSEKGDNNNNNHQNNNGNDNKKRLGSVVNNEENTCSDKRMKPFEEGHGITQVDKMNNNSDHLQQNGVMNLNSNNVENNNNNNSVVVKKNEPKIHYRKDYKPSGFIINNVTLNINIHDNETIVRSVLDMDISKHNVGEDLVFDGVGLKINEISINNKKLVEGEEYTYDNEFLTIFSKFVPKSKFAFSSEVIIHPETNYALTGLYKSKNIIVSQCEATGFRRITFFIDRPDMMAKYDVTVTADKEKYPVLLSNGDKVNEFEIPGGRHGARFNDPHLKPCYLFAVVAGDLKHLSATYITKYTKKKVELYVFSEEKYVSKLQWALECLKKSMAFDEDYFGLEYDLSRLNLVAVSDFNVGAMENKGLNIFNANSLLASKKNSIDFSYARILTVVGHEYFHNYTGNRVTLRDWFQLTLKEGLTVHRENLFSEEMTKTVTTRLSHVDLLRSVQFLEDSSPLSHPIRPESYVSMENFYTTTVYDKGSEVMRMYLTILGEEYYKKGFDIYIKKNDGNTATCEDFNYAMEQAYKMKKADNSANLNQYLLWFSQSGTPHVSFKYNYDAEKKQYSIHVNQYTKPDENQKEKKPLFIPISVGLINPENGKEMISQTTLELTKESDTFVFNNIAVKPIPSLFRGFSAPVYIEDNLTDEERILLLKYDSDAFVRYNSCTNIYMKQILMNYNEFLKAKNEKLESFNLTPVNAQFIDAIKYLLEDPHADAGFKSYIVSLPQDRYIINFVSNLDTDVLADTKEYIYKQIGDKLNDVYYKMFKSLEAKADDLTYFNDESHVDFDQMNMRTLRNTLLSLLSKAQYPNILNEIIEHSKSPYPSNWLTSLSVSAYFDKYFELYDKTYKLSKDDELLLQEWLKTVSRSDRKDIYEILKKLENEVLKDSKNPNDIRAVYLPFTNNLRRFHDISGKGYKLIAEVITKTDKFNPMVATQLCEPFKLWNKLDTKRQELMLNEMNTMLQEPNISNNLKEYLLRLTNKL
The experiment in a line: P. falciparum M1AAP inhibitors, biochemical, fluorogenic H-Leu-NHMec substrate, 1536-well (AID 1445). Details: species or system Plasmodium falciparum 3D7, 3D7.

Experiment [6] concerns the target Eukaryotic translation initiation factor 4H (Homo sapiens, UniProt Q15056). The experiment in a line: human eIF4H binding inhibitors, primary screen, translation initiation inhibitor project, biochemical, uHTS, fluorescence polarization (AID 2012).
Experiment [7] can be described thus: inhibitors of SNCA 5'UTR-driven reporter translation, confirmation, H4 neuroglioma cells, luminescence (AID 1988). The format is functional, cell-based.
Experiment [8] can be described thus: cytotoxicity in HEK-293T cells, dose response, cytotoxicity control for BCR NF-kB inhibitor project, luminescence, B-cell screen hits (AID 489021).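 Also: HEK-293T cells carrying an NF-kB luciferase reporter; cells exposed to compound for about 14 hours before viability readout.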 It counts as functional, cell-based.
Experiment [9] is described as follows: inhibitors of firefly luciferase expression or activity, dose response, H4 neuroglioma cells, luminescence (AID 1990). The format is functional, cell-based.
A short description of experiment [10]: Luminescence Cell-Based Dose Response HTS to Identify Inhibitors of 5'UTR Stem-Loop Driven Prion Protein mRNA Translation in H4 Neuroglioblastoma Cells. [Related pubchem assays: 1827 (Project Summary), 1813 (Primary HTS)]. It counts as functional.
Experiment [11] concerns the target G-protein coupled receptor 35 (Homo sapiens, UniProt Q9HC97). Description: GPR35 antagonists blocking zaprinast-driven arrestin recruitment, primary screen, imaging, U2OS, beta-arrestin-GFP, zaprinast agonist (AID 2058).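 Also: antagonist potency meaning inhibition of agonist-induced arrestin redistribution.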 It counts as functional.
Experiment [12] can be described thus: Luminescence Cell-Based Dose Retest to Confirm Inhibitors of Cancer Stem Cells. [Related pubchem assays (depositor defined):AID2717, AID2721]. The format is functional. Conditions: Homo sapiens.
The test system of a further experiment is HeLa. Description: HeLa cell cytotoxicity, dose response, cytotoxicity control, 24 h, cherry-picked samples (AID 504726).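 Also: potency for cytotoxicity as loss of luminescence signal.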 It counts as functional, cell-based. Conditions: Homo sapiens.
A further experiment addresses T4, Phosphomannomutase 2 (Homo sapiens, UniProt O15305).
T4 sequence (O15305 whole entry): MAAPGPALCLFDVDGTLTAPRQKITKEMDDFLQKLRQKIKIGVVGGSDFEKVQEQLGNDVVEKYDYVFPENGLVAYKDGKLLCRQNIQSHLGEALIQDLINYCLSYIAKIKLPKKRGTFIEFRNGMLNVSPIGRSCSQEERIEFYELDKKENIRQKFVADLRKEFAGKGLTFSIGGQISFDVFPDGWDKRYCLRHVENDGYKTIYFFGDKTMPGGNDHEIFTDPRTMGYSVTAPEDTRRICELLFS
The experiment in a line: Counter screen SAR assay for PMM2 inhibitors via a fluorescence intensity assay. [Related pubchem assays (depositor defined):AID1545, AID1574]. A general note: Counterscreens check selectivity or assay interference.

Experiment [13] has as its target T5, Mannose-6-phosphate isomerase (Homo sapiens, UniProt P34949).
T5 sequence (P34949 whole entry): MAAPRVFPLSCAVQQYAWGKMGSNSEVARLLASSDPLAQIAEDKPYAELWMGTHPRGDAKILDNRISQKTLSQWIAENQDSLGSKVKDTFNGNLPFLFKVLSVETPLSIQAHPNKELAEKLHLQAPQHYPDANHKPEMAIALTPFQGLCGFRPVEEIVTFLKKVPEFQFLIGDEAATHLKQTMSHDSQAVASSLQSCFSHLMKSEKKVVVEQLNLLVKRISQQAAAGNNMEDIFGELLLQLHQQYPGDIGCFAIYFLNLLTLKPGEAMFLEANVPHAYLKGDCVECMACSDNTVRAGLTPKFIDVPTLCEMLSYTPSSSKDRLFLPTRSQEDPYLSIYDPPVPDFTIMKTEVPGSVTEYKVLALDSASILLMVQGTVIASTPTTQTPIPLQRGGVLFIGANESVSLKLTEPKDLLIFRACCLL
The experiment in a line: PMI enzyme inhibitors, confirmation, biochemical, fluorescence intensity (AID 1535).

Values joined by “and” are separate entries in the source; they are usually repeats but may differ in a detail not shown here. Equal values may be shown once. Active and inactive are the calls of the source.

Sequence of Keap1/Nrf2 (Q16236 whole entry): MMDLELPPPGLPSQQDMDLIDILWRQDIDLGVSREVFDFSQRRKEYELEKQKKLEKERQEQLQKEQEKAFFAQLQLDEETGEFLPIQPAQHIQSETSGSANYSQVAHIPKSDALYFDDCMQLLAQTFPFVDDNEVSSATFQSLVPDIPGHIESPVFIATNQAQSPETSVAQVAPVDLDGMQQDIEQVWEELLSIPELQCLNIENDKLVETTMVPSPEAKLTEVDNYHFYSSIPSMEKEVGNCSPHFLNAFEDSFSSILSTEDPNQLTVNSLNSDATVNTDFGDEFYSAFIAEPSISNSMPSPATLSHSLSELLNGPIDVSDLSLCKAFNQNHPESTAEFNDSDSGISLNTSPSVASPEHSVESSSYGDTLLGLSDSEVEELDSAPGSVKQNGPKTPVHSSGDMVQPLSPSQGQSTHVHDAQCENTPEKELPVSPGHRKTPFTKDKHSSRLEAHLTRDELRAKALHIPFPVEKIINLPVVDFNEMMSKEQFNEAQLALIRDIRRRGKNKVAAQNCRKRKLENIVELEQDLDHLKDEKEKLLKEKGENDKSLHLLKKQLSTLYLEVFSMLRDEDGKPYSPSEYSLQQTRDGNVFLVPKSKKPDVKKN
Sequence of Keap1/Nrf2 (Q14145 whole entry): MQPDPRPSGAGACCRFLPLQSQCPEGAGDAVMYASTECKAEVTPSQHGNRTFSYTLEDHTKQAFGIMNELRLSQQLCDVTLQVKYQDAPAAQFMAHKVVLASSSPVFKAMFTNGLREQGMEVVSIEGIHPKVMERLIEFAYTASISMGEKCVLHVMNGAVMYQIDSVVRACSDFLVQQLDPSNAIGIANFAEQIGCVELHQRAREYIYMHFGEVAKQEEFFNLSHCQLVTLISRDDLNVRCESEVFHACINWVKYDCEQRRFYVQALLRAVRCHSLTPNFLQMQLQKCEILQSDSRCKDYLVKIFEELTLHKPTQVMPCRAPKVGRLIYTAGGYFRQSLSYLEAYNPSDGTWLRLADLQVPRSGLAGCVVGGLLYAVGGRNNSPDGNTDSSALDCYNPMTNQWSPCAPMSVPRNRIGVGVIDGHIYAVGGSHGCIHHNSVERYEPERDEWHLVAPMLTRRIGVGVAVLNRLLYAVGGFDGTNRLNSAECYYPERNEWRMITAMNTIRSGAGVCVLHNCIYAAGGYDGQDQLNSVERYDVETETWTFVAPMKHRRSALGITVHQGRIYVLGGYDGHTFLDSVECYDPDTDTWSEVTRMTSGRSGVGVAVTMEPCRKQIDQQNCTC
Sequence of G-protein coupled receptor 35 (Q9HC97 whole entry): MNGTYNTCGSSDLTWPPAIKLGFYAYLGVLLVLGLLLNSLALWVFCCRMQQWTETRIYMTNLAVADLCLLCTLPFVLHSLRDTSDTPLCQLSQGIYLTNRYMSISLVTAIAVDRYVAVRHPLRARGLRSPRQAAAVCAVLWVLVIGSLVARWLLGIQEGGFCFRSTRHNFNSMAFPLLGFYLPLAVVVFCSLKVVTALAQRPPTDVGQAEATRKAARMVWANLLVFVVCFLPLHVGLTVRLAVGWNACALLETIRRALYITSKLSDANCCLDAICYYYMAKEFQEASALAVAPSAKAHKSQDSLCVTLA

`COc1cc2c3nnc(-c4ccc(F)cc4)c-3cn(Cc3cccc(F)c3)c2cc1OC`: in experiment [1], the EC50 was 3.59 µM (active).

Take `Cc1ccc(N/C=C2/C(=O)N(c3ccc4c(c3)OCO4)C(=O)c3ccccc32)cc1`: the results for the IC50 at Coagulation factor XII and on Estrogen receptor were > 50 µM (inactive) and 19.8 µM (active), respectively. Also, the EC50 in experiment [2] was 8.15 µM (active); in experiment [3], 9.32 µM (active).

In the case of `c1ccc2c(c1)CCCN2Cc1nnnn1CC1CCCO1` (stereo not given), at Keap1/Nrf2, the AC50 is > 52 µM (inactive). Turning to `CCOC(=O)c1cnn(-c2ccccc2)c1-n1cccc1C(=O)C(=O)Nc1ccc(F)cc1`, in [4], the EC50 is 6.1 µM (active). In the case of `CCOC(=O)CSc1snnc1-c1ccccc1`, at Coagulation factor XII, the IC50 is > 50 µM (inactive). As to `c1ccc(-c2noc(CSc3nnnn3-c3ccccc3)n2)cc1`, the EC50 in experiment [4] is 8.32 µM (active). For the compound `CCN(CC)Cc1c(O)ccc2c(C)c(CC(=O)OC)c(=O)oc12`, the figures for the IC50 (in experiment [5]; at Aminopeptidase N; in experiment [6]) were > 100 µM (inactive), 40.4 µM (active) and > 100 µM (inactive), respectively.

Take `Cc1nc2cc(-c3cccc(F)c3)nn2c(C)c1CCC(=O)N1CCC2(CC1)OCCO2`: the EC50 was 15.4 µM (active) in experiment [7], 10.1 µM (active) in experiment [9] and 16.6 µM (active) in experiment [10]. Further, the IC50 in experiment [8] was > 80 µM (inactive). As for `CCOC(=O)C1CCN(c2ncnc3c2cnn3-c2ccc(Cl)cc2)CC1`, the IC50 in experiment [8] is > 80 µM (inactive). On to `CC(C)CSC1=NSC2=NC(=O)/C(=C\c3coc4ccccc4c3=O)C(=N)N12`, for which the IC50 in experiment [11] was 23.3 µM (inactive). Turning to `CCN1C(=O)c2cccc3c(S(=O)(=O)N4CCC(C)CC4)ccc1c23`, in [8], the IC50 was > 80 µM (inactive). On to `Cc1cc(C)c2c(c1)/C(=C/C(=O)c1ccc(Br)s1)C(=O)N2`, for which the EC50 in experiment [1] is 6.24 µM (active). In experiment [12], the AC50 was 2.22 µM (active). As to `Cc1ccc(NC(=O)c2ccc(Cl)c(S(=O)(=O)N3CCc4ccccc43)c2)nc1`, the AC50 with HeLa is 342 µM (active). `Clc1nss/c1=N\c1cccnc1`: the half-maximal inhibitory concentration (IC50) at Phosphomannomutase 2 was > 65.8 µM (active); in experiment [13], 16.7 µM (active) and 13.2 µM (active). With `O=C1NC(=O)N(Cc2ccc(F)cc2)C(=O)/C1=C/Nc1ccc(C(=O)O)cc1`, at Coagulation factor XII, the IC50 is > 50 µM (inactive).
